Laboratory results as given in ChEMBL document CHEMBL5344409, “Discovery of pan-IAP degraders via a CRBN recruiting mechanism” (2023).
The source made the active and inactive calls. No cut-off for these calls is given here.

Assays:
[1] = biological target: Baculoviral IAP repeat-containing protein 2 (Homo sapiens) (UniProt Q13490); assay: Induction of cIAP1 degradation in human MCF7 cells at 0.1 uM measured after 18 hrs by western blot analysis; format: cell-based
MCF7 [2] = assay: Cytotoxicity against human MCF7 cells assessed as inhibition of cell growth measured after 72 hrs by CellTiter-Glo luminescent assay; format: functional
[3] = biological target: T1, Protein cereblon-IAP (Homo sapiens) (UniProt P98170+Q13489+Q13490+Q96SW2); assay: PROTAC activity at CRBN/IAP in human MCF7 cells assessed as inhibition of TNFalpha-induced NFkappaB activation by measuring decrease in IkBalpha phosphorylation at 0.1 uM pretreated for 2 hrs followed by stimulation with TNF-alpha for 3 mins by western blot analysis; format: cell-based; conditions: time 123.0 min
T1 sequence (P98170 whole entry, looked up): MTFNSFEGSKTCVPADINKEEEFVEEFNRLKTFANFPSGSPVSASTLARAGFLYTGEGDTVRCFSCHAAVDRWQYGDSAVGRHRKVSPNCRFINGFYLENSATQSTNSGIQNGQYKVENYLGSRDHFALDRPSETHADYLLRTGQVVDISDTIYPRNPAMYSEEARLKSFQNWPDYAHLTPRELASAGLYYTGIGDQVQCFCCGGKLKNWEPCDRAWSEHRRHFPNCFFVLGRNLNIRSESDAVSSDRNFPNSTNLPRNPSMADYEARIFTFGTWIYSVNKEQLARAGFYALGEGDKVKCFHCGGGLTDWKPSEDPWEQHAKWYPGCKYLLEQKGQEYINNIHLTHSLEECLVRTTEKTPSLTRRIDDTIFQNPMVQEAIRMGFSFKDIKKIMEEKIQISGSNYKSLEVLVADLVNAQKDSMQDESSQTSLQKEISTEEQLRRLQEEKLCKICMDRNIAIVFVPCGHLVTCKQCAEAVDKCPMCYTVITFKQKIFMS
T1 sequence (Q13489 whole entry, looked up): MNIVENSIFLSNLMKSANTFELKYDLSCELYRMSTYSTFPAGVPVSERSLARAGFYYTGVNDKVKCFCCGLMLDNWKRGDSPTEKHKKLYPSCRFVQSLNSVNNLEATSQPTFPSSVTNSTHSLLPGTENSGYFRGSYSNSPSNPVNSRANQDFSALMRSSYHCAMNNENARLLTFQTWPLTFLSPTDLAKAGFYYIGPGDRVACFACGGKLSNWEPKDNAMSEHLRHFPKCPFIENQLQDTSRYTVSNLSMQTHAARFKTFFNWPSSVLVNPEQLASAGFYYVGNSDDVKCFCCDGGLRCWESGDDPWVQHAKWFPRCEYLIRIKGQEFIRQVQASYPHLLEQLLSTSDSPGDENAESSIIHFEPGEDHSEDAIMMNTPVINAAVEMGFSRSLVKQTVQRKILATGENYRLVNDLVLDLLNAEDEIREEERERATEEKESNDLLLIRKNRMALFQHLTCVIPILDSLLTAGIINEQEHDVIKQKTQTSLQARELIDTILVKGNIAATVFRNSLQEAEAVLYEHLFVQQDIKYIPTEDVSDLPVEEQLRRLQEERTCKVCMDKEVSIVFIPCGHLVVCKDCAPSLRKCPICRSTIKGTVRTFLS
T1 sequence (Q13490 whole entry, looked up): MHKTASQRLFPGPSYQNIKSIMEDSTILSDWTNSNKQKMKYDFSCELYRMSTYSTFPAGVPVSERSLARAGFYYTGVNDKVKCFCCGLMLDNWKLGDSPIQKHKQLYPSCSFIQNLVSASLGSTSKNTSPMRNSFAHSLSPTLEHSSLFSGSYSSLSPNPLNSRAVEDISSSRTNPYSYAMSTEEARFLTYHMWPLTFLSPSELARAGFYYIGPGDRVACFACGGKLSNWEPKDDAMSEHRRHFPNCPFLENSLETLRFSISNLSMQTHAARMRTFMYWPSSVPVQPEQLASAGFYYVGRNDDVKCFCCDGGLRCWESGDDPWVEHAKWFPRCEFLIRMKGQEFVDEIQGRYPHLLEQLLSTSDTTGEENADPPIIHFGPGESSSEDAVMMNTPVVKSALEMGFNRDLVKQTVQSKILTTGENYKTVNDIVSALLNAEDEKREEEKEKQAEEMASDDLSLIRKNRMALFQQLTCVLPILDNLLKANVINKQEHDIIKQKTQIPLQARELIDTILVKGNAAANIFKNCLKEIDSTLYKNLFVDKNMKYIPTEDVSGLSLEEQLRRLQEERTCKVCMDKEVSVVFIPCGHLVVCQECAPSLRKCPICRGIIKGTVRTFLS
T1 sequence (Q96SW2 whole entry, looked up): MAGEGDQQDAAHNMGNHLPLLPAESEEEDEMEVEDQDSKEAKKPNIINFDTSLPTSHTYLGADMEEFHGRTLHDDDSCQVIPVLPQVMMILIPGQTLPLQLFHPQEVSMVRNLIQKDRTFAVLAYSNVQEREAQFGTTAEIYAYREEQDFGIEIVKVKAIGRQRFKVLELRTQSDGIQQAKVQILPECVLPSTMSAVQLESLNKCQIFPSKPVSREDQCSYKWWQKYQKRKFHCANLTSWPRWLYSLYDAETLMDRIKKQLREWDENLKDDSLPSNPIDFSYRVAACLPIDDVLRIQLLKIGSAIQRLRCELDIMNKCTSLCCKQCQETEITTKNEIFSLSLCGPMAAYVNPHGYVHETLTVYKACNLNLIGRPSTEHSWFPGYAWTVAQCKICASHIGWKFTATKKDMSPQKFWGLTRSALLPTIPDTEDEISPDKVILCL

MCF7 [4] = assay: Inhibition of TNFalpha-induced E-cadherin protein expression in human MCF7 cells by western blot analysis; format: functional, cell-based
[5] = biological target: T2, Protein cereblon/Baculoviral IAP repeat-containing protein 3 (Homo sapiens) (UniProt Q13489+Q96SW2); assay: PROTAC activity at CRBN/cIAP2 in human MCF7 cells assessed as induction of cIAP2 degradation at 1 uM measured after 6 hrs in presence of proteasome inhibitor, MG132 by western blot analysis; format: cell-based
T2 sequence (Q13489 whole entry, looked up): as the sequence (Q13489 whole entry, looked up) above
T2 sequence (Q96SW2 whole entry, looked up): as the sequence (Q96SW2 whole entry, looked up) above

MCF7 [6] = assay: Inhibition of TNFalpha-induced cytokine mRNA expression in human MCF7 cells assessed as decrease in TNF-alpha mRNA level by quantitative real-time PCR analysis; format: functional, cell-based
[7] = biological target: T3, Protein cereblon/E3 ubiquitin-protein ligase XIAP (Homo sapiens) (UniProt P98170+Q96SW2); assay: PROTAC activity at CRBN/XIAP in human MCF7 cells assessed as induction of XIAP degradation at 0.1 to 10 uM measured after 18 hrs by western blot analysis; format: cell-based; conditions: dose 0.1-10 µM
T3 sequence (P98170 whole entry, looked up): as the sequence (P98170 whole entry, looked up) above
T3 sequence (Q96SW2 whole entry, looked up): as the sequence (Q96SW2 whole entry, looked up) above

MCF7 [8] = assay: Induction of apoptosis in human MCF7 cells assessed as increase in PARP cleavage at 1 uM measured after 6 hrs in presence of TNF-alpha by western blot analysis; format: functional, cell-based
MCF7 [9] = assay: Inhibition of TNFalpha-induced cytokine secretion in human MCF7 cells assessed as decrease in TNFalpha level at 0.1 uM measured after 4 hrs by ELISA; format: functional, cell-based
[10] = biological target: Baculoviral IAP repeat-containing protein 2 (Homo sapiens) (UniProt Q13490); assay: Induction of cIAP1 degradation in human MCF7 cells transfected with CRBN siRNA at 0.01 to 1 uM measured after 18 hrs by western blot analysis; format: cell-based; conditions: dose 0.01-1 µM
[11] = biological target: T3, Protein cereblon/E3 ubiquitin-protein ligase XIAP (Homo sapiens); assay: PROTAC activity at CRBN/XIAP in human MCF7 cells assessed as induction of XIAP degradation at 0.1 uM measured within 1 hr by western blot analysis; format: cell-based
[12] = biological target: T2, Protein cereblon/Baculoviral IAP repeat-containing protein 3 (Homo sapiens); assay: PROTAC activity at CRBN/cIAP2 in human MCF7 cells assessed as induction of cIAP2 degradation at 1 uM measured after 18 hrs by western blot analysis; format: cell-based
[13] = biological target: T3, Protein cereblon/E3 ubiquitin-protein ligase XIAP (Homo sapiens); assay: Binding affinity to CRBN/XIAP in human HEK293T cells assessed as ternary complex formation at 1 uM measured after 6 hrs by immunoprecipitation analysis; format: cell-based
MDA-MB-231 [14] = assay: Inhibition of TNFalpha-induced cell migration in human MDA-MB-231 cells at 0.1 uM measured after 24 hrs in presence of TNFalpha by transwell assay; format: functional, cell-based
MDA-MB-157 = assay: Inhibition of TNFalpha-induced cell invasion in human MDA-MB-157 cells at 0.1 uM measured after 24 hrs in presence of TNFalpha by transwell assay; format: functional, cell-based
MCF7 [15] = assay: Induction of apoptosis in human MCF7 cells assessed as increase in PARP cleavage at 0.1 uM measured after 18 hrs by western blot analysis; format: functional, cell-based
[16] = biological target: T1, Protein cereblon-IAP (Homo sapiens); assay: PROTAC activity at CRBN/IAP in human MCF7 cells assessed as inhibition of TNFalpha-induced NFkappaB activation by measuring decrease in p38 phosphorylation at 0.1 uM pretreated for 2 hrs followed by stimulation with TNF-alpha for 3 mins by western blot analysis; format: cell-based; conditions: time 123.0 min
MCF7 [17] = assay: Cytotoxicity against human MCF7 cells assessed as reduction in cell viability at 1 uM measured after 24 hrs in presence of TNF-alpha by CellTiter-Glo luminescent assay; format: functional, cell-based
MDA-MB-231 [18] = assay: Inhibition of TNFalpha-induced cell invasion in human MDA-MB-231 cells at 0.1 uM measured after 24 hrs in presence of TNFalpha by transwell assay; format: functional, cell-based
MCF7 [19] = assay: Induction of apoptosis in human MCF7 cells assessed as increase in caspase-7 cleavage at 1 uM measured after 6 hrs in presence of TNF-alpha by western blot analysis; format: functional, cell-based
[20] = biological target: T2, Protein cereblon/Baculoviral IAP repeat-containing protein 3 (Homo sapiens); assay: PROTAC activity at CRBN/cIAP2 in human MCF7 cells assessed as induction of cIAP2 degradation at 0.1 uM measured after 18 hrs by western blot analysis; format: cell-based
MCF7 [21] = assay: Inhibition of TNFalpha-induced cytokine mRNA expression in human MCF7 cells assessed as decrease in IL-6 mRNA level by quantitative real-time PCR analysis; format: functional, cell-based
[22] = biological target: T3, Protein cereblon/E3 ubiquitin-protein ligase XIAP (Homo sapiens); assay: PROTAC activity at CRBN/XIAP in human MCF7 cells assessed as induction of XIAP degradation at 1 uM measured after 18 hrs by western blot analysis; format: cell-based
MCF7 [23] = assay: Inhibition of TNFalpha-induced cytokine secretion in human MCF7 cells assessed as decrease in IL-6 level at 0.1 uM measured after 4 hrs by ELISA; format: functional, cell-based
[24] = biological target: Baculoviral IAP repeat-containing protein 2 (Homo sapiens) (UniProt Q13490); assay: Induction of cIAP1 degradation in human MCF7 cells at 0.1 to 10 uM measured after 18 hrs by western blot analysis; format: cell-based; conditions: dose 0.1-10 µM
[25] = biological target: T1, Protein cereblon-IAP (Homo sapiens); assay: PROTAC activity at CRBN/IAP in human MCF7 cells assessed as inhibition of TNFalpha-induced NFkappaB activation by measuring decrease in IKKalpha/beta phosphorylation at 0.1 uM pretreated for 2 hrs followed by stimulation with TNF-alpha for 3 mins by western blot analysis; format: cell-based; conditions: time 123.0 min
[26] = biological target: T2, Protein cereblon/Baculoviral IAP repeat-containing protein 3 (Homo sapiens); assay: PROTAC activity at CRBN/cIAP2 in human MCF7 cells assessed as induction of cIAP2 degradation at 0.1 to 10 uM measured after 18 hrs by western blot analysis; format: cell-based; conditions: dose 0.1-10 µM
[27] = biological target: Baculoviral IAP repeat-containing protein 2 (Homo sapiens) (UniProt Q13490); assay: Induction of cIAP1 degradation in human MCF7 cells at 1 uM measured after 6 hrs in presence of proteasome inhibitor, MG132 by western blot analysis; format: cell-based
SK-OV-3 = assay: Cytotoxicity against human SK-OV-3 cells assessed as inhibition of cell growth measured after 72 hrs by CellTiter-Glo luminescent assay; format: functional, cell-based
[28] = biological target: Baculoviral IAP repeat-containing protein 2 (Homo sapiens) (UniProt Q13490); assay: Induction of cIAP1 degradation in human MCF7 cells at 0.1 uM measured within 1 hr by western blot analysis; format: cell-based
[29] = biological target: Baculoviral IAP repeat-containing protein 2 (Homo sapiens) (UniProt Q13490); assay: Induction of cIAP1 degradation in human MCF7 cells at 1 uM measured after 18 hrs by western blot analysis; format: cell-based
[30] = biological target: T3, Protein cereblon/E3 ubiquitin-protein ligase XIAP (Homo sapiens); assay: PROTAC activity at CRBN/XIAP in human MCF7 cells assessed as protein abundance at 1 uM measured after 4 hrs by TMT-labeling based LC-MS/MS analysis; format: cell-based
[31] = biological target: T2, Protein cereblon/Baculoviral IAP repeat-containing protein 3 (Homo sapiens); assay: PROTAC activity at CRBN/cIAP2 in human MCF7 cells assessed as induction of cIAP2 degradation at 0.1 uM measured within 1 hr by western blot analysis; format: cell-based
[32] = biological target: T2, Protein cereblon/Baculoviral IAP repeat-containing protein 3 (Homo sapiens); assay: PROTAC activity at CRBN/cIAP2 in human MCF7 cells at 1 uM measured after 4 hrs by TMT-labeling based LC-MS/MS analysis; format: cell-based

Sequence of Baculoviral IAP repeat-containing protein 2 (Homo sapiens) (Q13490 whole entry): as the sequence (Q13490 whole entry, looked up) above

Q: With `CN[C@@H](C)C(=O)N[C@H](C(=O)N1Cc2cc(OCCCCCCCCNC(=O)C3CN(c4ccc5c(c4)C(=O)N(C4CCC(=O)NC4=O)C5=O)C3)ccc2C[C@H]1C(=O)N[C@@H]1CCCc2ccccc21)C(C)(C)C` (some centres undefined) as the compound, how does the Activity [1] read?
A: The Activity was 87%.

Q: What about the GI50 (MCF7 [2]) of the same compound?
A: The GI50 was 396 nM.

Q: What about the Activity [3] of the same compound?
A: Its Activity is “Active”.

Q: And the inhibition (MCF7 [4])?
A: The inhibition was “Active”.

Q: And the Activity [5]?
A: Its Activity is “inactive”.

Q: And the inhibition (MCF7 [6])?
A: The inhibition was “Active”.

Q: And the Activity [7]?
A: Its Activity is “Active”.

Q: What about the Activity (MCF7 [8]) of the same compound?
A: The Activity was “Active”.

Q: And the inhibition (MCF7 [9])?
A: Its inhibition is “Active”.

Q: What about the Activity [10] of the same compound?
A: Its Activity is “Active”.

Q: And the Activity [11]?
A: The Activity was over 90%.

Q: What about the Activity [12] of the same compound?
A: Its Activity is 97%.

Q: What about the Activity [13] of the same compound?
A: Its Activity is “Active”.

Q: What about the inhibition (MDA-MB-231 [14]) of the same compound?
A: Its inhibition is “Active”.

Q: And the inhibition (MDA-MB-157)?
A: Its inhibition is “Active”.

Q: And the Activity (MCF7 [15])?
A: The Activity was “Active”.

Q: What about the Activity [16] of the same compound?
A: Its Activity is “Active”.

Q: And the Activity (MCF7 [17])?
A: Its Activity is “Active”.

Q: And the inhibition (MDA-MB-231 [18])?
A: The inhibition was “Active”.

Q: What about the Activity (MCF7 [19]) of the same compound?
A: Its Activity is “Active”.

Q: And the Activity [20]?
A: The Activity was 90%.

Q: And the inhibition (MCF7 [21])?
A: The inhibition was “Active”.

Q: What about the Activity [22] of the same compound?
A: The Activity was 99%.

Q: What about the inhibition (MCF7 [23]) of the same compound?
A: Its inhibition is “Active”.

Q: And the Activity [24]?
A: The Activity was “Active”.

Q: What about the Activity [25] of the same compound?
A: Its Activity is “Active”.

Q: What about the Activity [26] of the same compound?
A: The Activity was “Active”.

Q: And the Activity [27]?
A: Its Activity is “inactive”.

Q: What about the Activity (SK-OV-3) of the same compound?
A: The Activity was “Active”.

Q: And the Activity [28]?
A: Its Activity is over 90%.

Q: And the Activity [29]?
A: The Activity was 90%.

Q: What about the fold change (FC) [30] of the same compound?
A: Its fold change (FC) is over 2.

Q: And the Activity [31]?
A: Its Activity is over 90%.

Q: What about the Activity [32] of the same compound?
A: The Activity was “Active”.
